For this assay, the target named is T1, KIF18A (Homo sapiens, UniProt Q8NI77).
T1 sequence (Q8NI77 1-898): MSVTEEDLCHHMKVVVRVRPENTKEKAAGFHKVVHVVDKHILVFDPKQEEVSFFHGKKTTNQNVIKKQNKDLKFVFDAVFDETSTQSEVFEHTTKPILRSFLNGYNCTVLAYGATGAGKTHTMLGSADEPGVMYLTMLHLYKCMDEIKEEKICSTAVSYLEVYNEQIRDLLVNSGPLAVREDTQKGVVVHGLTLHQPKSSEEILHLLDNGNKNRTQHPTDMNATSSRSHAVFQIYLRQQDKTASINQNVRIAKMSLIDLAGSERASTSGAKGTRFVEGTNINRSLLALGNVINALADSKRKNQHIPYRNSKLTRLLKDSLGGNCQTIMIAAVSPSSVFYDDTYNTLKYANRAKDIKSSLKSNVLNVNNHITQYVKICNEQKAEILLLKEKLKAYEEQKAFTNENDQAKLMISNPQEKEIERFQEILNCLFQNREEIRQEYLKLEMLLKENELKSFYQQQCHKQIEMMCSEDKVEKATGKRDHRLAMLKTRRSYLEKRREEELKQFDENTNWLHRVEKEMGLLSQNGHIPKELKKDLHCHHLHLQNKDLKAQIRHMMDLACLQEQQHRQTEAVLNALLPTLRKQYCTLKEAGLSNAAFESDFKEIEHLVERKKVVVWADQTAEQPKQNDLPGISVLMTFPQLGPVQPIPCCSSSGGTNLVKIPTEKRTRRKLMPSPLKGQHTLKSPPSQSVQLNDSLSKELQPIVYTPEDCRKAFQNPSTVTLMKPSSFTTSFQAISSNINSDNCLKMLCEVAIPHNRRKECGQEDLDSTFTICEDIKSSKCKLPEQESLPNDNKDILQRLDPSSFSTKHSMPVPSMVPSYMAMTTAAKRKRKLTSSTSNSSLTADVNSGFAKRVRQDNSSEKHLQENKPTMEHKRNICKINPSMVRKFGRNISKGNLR
Briefly: KIF18A enzyme inhibition activity assay (ADP-Glo). It is filed as biochemical. Particulars: ADP-Glo kit, porcine tubulin, ATP; 10 concentration points, 3-fold serial dilution; 25°C. How it is done:
Embodiment 6: Biological example: KIF18A enzyme inhibition activity assay
2) Steps: • 2.1 Preparation of enzyme protein buffer solution • 2.2 Activity screening • a) 40 µL of compound solution was added to a 384-well dilution plate; • b) A 3-fold serial dilution was performed to obtain 10 concentration points; • c) 0.1 µL of compound solution was transferred into a 384-well plate; • d) 5 µL of enzyme reaction solution was added and centrifuged at 1,000 RPM for 1 minute; • e) The reaction took place at 25°C for 15 minutes; • f) 5 µL of ATP reaction solution was added; • g) The reaction took place at 25°C for 60 minutes; • h) 10 µL of ADP-Glo reagent was added and centrifuged at 1,000 RPM for 1 minute; • i) The reaction took place at 25°C for 60 minutes; • j) 20 µL of detection reagent was added and centrifuged at 1,000 RPM for 1 minute; • k) The reaction took place at 25°C for 60 minutes; • l) The Envision 2104 plate reader was used to measure […]. 3) Data analysis • 3.1 Fluorescence signal values were obtained from the readings of each well • 3.2 Calculation of IC50 Concentration-response curve fitting and IC50 determination were performed using GraphPad Prism software with a four-parameter logistic regression model.
For orientation: ADP-Glo first removes unused ATP, then detects ADP through luciferase.
By IC50 is commonly meant the concentration at which inhibition is half-maximal. On to `O=C1c2ccc(NS(=O)(=O)CCO)cc2C2(CCC3(CC3)CC2)CN1c1ccc(=O)n(C2CC(F)(F)C2)n1` [EX05, N-{2-[1-(3,3-Difluorocyclobutyl)-6-oxo-1,2-diazacyclohexanecarbonate-3-yl]-1-oxo-2,3-dihydro-1H-spiro[isoquinoline-4,6'-spiro[2.5]octane]-6-yl}-2-hydroxyethanesulfonamide], for which the IC50 amounted to 0.0082 µM. For `C[C@@H]1CN(c2cccc(N3CC4(CCC5(CC5)CC4)c4cc(NS(=O)(=O)CCO)ccc4C3=O)n2)CCO1` [EX04, 2-Hydroxy-N-(2-{6-[(2R)-2-methyl-1,4-oxazinane-4-yl]pyridin-2-yl}-1-oxo-2,3-dihydro-1H-spiro[isoquinoline-4,6'-spiro[2.5]octane]-6-yl)ethanesulfonamide] the value was 0.107 µM; for `Cc1cc(N2CC3(CCC4(CC4)CC3)c3cc(NS(=O)(=O)CCO)ccc3C2=O)nc(N2CCC(F)(F)CC2)n1` [EX02, N-{2-[2-(4,4-Difluorohexahydropyridin-1-yl)-6-methylpyrimidin-4-yl]-1-oxo-2,3-dihydro-1H-spiro[isoquinoline-4,6'-spiro[2.5]octane]-6-yl}-2-hydroxyethanesulfonamide], 0.038 µM; for `Cc1cc(N2CC3(CCC(C)(C)CC3)c3cc(NS(=O)(=O)CCO)ccc3C2=O)nc(N2CCC(F)(F)CC2)n1` [EX03, N-{2'-[2-(4,4-difluorohexahydropyridin-1-yl)-6-methylpyrimidin-4-yl]-1,1-dimethyl-1'-oxo-2',3'-dihydro-1'H-spiro[cyclohexane-4,4'-isoquinoline]-6'-yl}-2-hydroxyethanesulfonamide], 0.044 µM. For `O=C1c2ccc(NS(=O)(=O)CCO)cc2C2(CCCCC2)CN1c1cccc(N2CCOCC2)n1` [EX01, 2-Hydroxy-N-{2'-[6-(1,4-oxazinane-4-yl)pyridin-2-yl]-1'-oxo-2',3'-dihydro-1'H-spiro[cyclohexane-1,4'-isoquinoline]-6'-yl} ethanesulfonamide] the value was 2.03 µM.
